According to patent US20070208088A1, “PQS: A NEW HYDROTROPE FOR SOLUBILIZING LIPOPHILIC COMPOUNDS IN WATER” (ZYMES, LLC, priority 2006, published 2007):

Experiment: Micelle formation and micelle particle size in aqueous solution
Assay type: physicochemical
Settings: for particle size of the micelles: micelles formed in aqueous solution
Excerpt: In one example, the compounds of the invention form micelles when added to an aqueous solution. The particle sizes of these micelles can be determined using art recognized methods, such as light scattering techniques. In one embodiment, the particle size is between about 300 nm and about 1 nm, preferably between about 200 nm and about 1 nm, more preferably between about 100 nm and about 1 nm. Smaller particle sizes are generally preferred.
Smaller micelle size is generally preferred.

Substance: polyoxyethanyl-ubiquinol-sebacate [PQS-600]
- micelle formation in aqueous solution: forms micelles
- particle size of the micelles: about 120 nm

Substance: polyoxyethanyl-ubiquinol-sebacate [PQS-1000]
- micelle formation in aqueous solution: forms micelles
- particle size of the micelles: about 80 nm
